Reference: patent EP0191399A2, “Benz[a]anthraquinone compounds, a microbial process for their preparation and their use as medicaments” (priority 1985, dated 1986)
≈ marks a conversion by molar mass, not a printed value. Like-named read-outs stand apart in the source and are kept apart here.

How the values were obtained:
[1] = system: Adriamycin-sensitive P388 leukemia cells (P388/S); test: Growth inhibition of cultured Adriamycin-sensitive P388 leukemia cells; type: cell-based; conditions: Mus musculus, read-out: IC50 (μg/ml) P388/S
Text: The substance MH190 of the present invention are capable of inhibiting the growth of cultured Adriamycin-sensitive P388 leukemia cells (P388/S) and Adriamycin-resistant P388 leukemia cells (P388/ADR) in very low concentrations.

[2] = system: Adriamycin-resistant P388 leukemia cells (P388/ADR); test: Growth inhibition of cultured Adriamycin-resistant (multi-drug resistant) P388 leukemia cells; type: cell-based; conditions: for IC50: Mus musculus, read-out: IC50 (μg/ml) P388/ADR; for Ratio (P388/ADR to P388/S): ratio of IC50 P388/ADR to IC50 P388/S
L1210 leukemia cells = test: Anti-tumor activity against intraperitoneally transplanted L1210 leukemia in mice (life prolongation); type: in vivo, CDF1 mice; conditions: for Percentage life prolongation: intraperitoneal for 10 days, survival of saline control taken as 100
Experimental: L1210 leukemia cells (1 x 10^5 per animal) were transplanted intraperitoneally into CDF1 mice. Immediately after the transplantation, a solution of MH190 Y2 was injected intraperitoneally for 10 days in a dose of […]. The percentage life prolongation of each of the treated mice was checked and the results are shown below, with the number of days of survival of control mice to which physiological saline had been administered being taken as 100.

[3] = Acute toxicity (LD50), single intraperitoneal injection; conditions: mouse, in vivo, ip; single intraperitoneal injection into mice
[4] = Stability (physicochemical properties, Table 5); conditions: light, acid, alkali, silica gel
[5] = Solubility in solvents (physicochemical properties, Table 5); conditions: for Solubility (1) Soluble: solvents in which the substance is soluble; for Solubility (2) Sparingly soluble: solvents in which the substance is sparingly soluble

Row | SMILES | IC50 ([1]; P388/S) [µg/mL] | IC50 ([2]; P388/ADR) [µg/mL] | Ratio (P388/ADR to P388/S) [2] | Percentage life prolongation (L1210 leukemia cells; dose 0.156 mg/Kg/dat) | Percentage life prolongation (L1210 leukemia cells; dose 0.313 mg/Kg/dat) | Percentage life prolongation (L1210 leukemia cells; dose 0.625 mg/Kg/dat) | Percentage life prolongation (L1210 leukemia cells; dose 1.25 mg/Kg/dat) | Percentage life prolongation (L1210 leukemia cells; dose 2.5 mg/Kg/dat) | Percentage life prolongation (L1210 leukemia cells; dose 5 mg/Kg/dat) | anti-tumor activities (L1210 leukemia cells; doses ranging from 0.313 to 5 mg/kg/day) | LD50 [3] [mg/kg] | Stability [4] | Solubility (1) Soluble [5] | Solubility (2) Sparingly soluble [5] | IC50 ([2]; cultured P388/ADR cells) [µg/mL] | IC50 ([1]; cultured P388/S cells) [µg/mL]
1 | CC1OC(OC2CCC(OC3(C)CC(=O)C4(O)C5=C(C=CC4(O)C3)C(=O)c3c(ccc(C4CC6OC7CC(=O)C(C)OC7OC6C(C)O4)c3O)C5=O)OC2C)C=CC1=O (centres unmarked) [MH190 Y2, Saquayamycin B] | 0.08 (≈ 0.0975 µM) | 0.067 (≈ 0.0816 µM) | 0.84 | 102 | 127 | 120 | 127 | 151 | 175 | appreciable anti-tumor activities | 6.25 to 12.5 | instable against light, acid and alkali | CHCl3, ethyl acetate, butyl acetate, methanol, acetonitrile, acetone, dimethyl sulfoxide | H2O, hexane, petroleum ether |  | 
2 | CC1OC(OC2C(O)CC(c3ccc4c(c3O)C(=O)C3=C(C4=O)C4(O)C(=O)CC(C)(O)CC4(O)C=C3)OC2C)C=CC1=O (centres unmarked) [MH190 Y1-1, Saquayamycin A1] | 0.175 (≈ 0.293 µM) | 0.09 (≈ 0.151 µM) | 0.51 |  |  |  |  |  |  |  |  | instable against light, acid and alkali changed to MH190 Y2 on silica gel | CHCl3, ethyl acetate, butyl acetate, methanol, acetonitrile, acetone, dimethyl sulfoxide | H2O, hexane, petroleum ether |  | 
3 | COc1cccc2c1C(=O)c1c(O)c3c(c(O)c1C2=O)C[C@@](O)(C(=O)CO)C[C@@H]3O[C@H]1C[C@H](N)[C@H](O)[C@H](C)O1 [Adriamycin, reference compound] | 0.012 (≈ 0.0221 µM) |  | 31.7 |  |  |  |  |  |  |  |  |  |  |  | 0.38 (≈ 0.699 µM) | 
4 | CC1OC(OC2CCC(OC3(C)CC(=O)C4(O)C5=C(C=CC4(O)C3)C(=O)c3c(ccc(C4CC(O)C(OC6C=CC(=O)C(C)O6)C(C)O4)c3O)C5=O)OC2C)C=CC1=O (centres unmarked) [MH190 Y1, Saquayamycin A] |  |  | 0.84 |  |  |  |  |  |  |  |  | instable against light, acid and alkali changed to MH190 Y2 on silica gel | CHCl3, ethyl acetate, butyl acetate, methanol, acetonitrile, acetone, dimethyl sulfoxide | H2O, hexane, petroleum ether | 0.056 (≈ 0.0682 µM) | 0.067 (≈ 0.0816 µM)
5 | CC1OC(OC2C(O)CC(c3ccc4c(c3O)C(=O)C3=C(C4=O)C4(O)C(=O)CC(C)(O)CC4(O)C=C3)OC2C)CCC1=O (centres unmarked) [MH190 Y3-1, Saquayamycin C1] |  |  |  |  |  |  |  |  |  |  |  | instable against light, acid and alkali | CHCl3, ethyl acetate, butyl acetate, methanol, acetonitrile acetone, dimethyl sulfoxide | H2O, hexane, petroleum ether |  | 
6 | CC1OC(OC2CCC(OC3(C)CC(=O)C4(O)C5=C(C=CC4(O)C3)C(=O)c3c(ccc(C4CC6OC7CC(=O)C(C)OC7OC6C(C)O4)c3O)C5=O)OC2C)CCC1=O (centres unmarked) [MH190 Y4, Saquayamycin D] | 0.07 (≈ 0.0851 µM) | 0.06 (≈ 0.0729 µM) | 0.86 |  |  |  |  |  |  |  |  | instable against light, acid and alkali | CHCl3, ethyl acetate, butyl acetate, methanol, acetonitrile, acetone, dimethyl sulfoxide | H2O, hexane, petroleum ether |  | 
7 | CC1OC2OC3C(C)OC(c4ccc5c(c4O)C(=O)C4=C(C5=O)C5(O)C(=O)CC(C)(O)CC5(O)C=C4)CC3OC2CC1=O (centres unmarked) [MH190 Y2-1, Saquayamycin B1] | 0.13 (≈ 0.218 µM) | 0.074 (≈ 0.124 µM) | 0.57 |  |  |  |  |  |  |  |  | instable against light, acid and alkali | CHCl3, ethyl acetate, butyl acetate, methanol, acetonitrile, acetone, dimethyl sulfoxide | H2O, hexane, petroleum ether |  | 
8 | CC1OC(OC2CCC(OC3(C)CC(=O)C4(O)C5=C(C=CC4(O)C3)C(=O)c3c(ccc(C4CC(O)C(OC6CCC(=O)C(C)O6)C(C)O4)c3O)C5=O)OC2C)CCC1=O (centres unmarked) [MH190 Y3, Saquayamycin C] | 0.072 (≈ 0.0873 µM) | 0.06 (≈ 0.0727 µM) | 0.83 |  |  |  |  |  |  |  |  | instable against light, acid and alkali | CHCl3, ethyl acetate, butyl acetate, methanol, acetonitrile, acetone, dimethyl sulfoxide | H2O, hexane, petroleum ether |  | 
